Source: publication PMC11995402 (ACS infectious diseases, 2025)
Entries after “also recorded” stand apart in the source; their conditions may differ. Read-outs that look alike come from different tables or passages of the source. Blank lines part the entries; values can stand above or below the compound they belong to.

Tests used:
MDR1 (P-gp) = test: in vitro; details: dog, MDCK-MDR1
in vitro = details: dog
T. muris = test: adult whipworm whole-worm motility inhibition assay; assay type: cell-based, Trichuris muris; details: for worm motility inhibition (in words) / motility inhibition: adult T. muris; for worm motility inhibition (in words): 30 μM (Figure 1); for worm motility inhibition, SAR statement (in words): T. muris, 50 μM, 48 h (Figures 3-5); for motility inhibition: 30 μM
A. ceylanicum = test: adult hookworm whole-worm motility inhibition assay; assay type: cell-based, Ancylostoma ceylanicum; details: for worm motility inhibition, SAR statement (in words): A. ceylanicum, 30 μM, 48 h (Figures 3-5); for IC50: motility
HepG2 cells = test: HepG2 MTT viability assay; details: for CC50: read-out: HEPG2 cells CC50 μM (95% CI) 24 h, MTT viability, 24 h
CK2α/PI3Kγ = details: cited from earlier work
[1] = read-out: A. ceylanicum IC50 μM (95% CI) 24 h, 24 h
[2] = read-out: A. ceylanicum IC50 μM (95% CI) 48 h, 48 h
[3] = read-out: T. muris IC50 μM (95% CI) 24 h, motility, 24 h
[4] = read-out: T. muris IC50 μM (95% CI) 48 h, motility, 48 h

Papp A→B (MDR1 (P-gp)): 25.6 ×10⁻⁶ cm/s
recovery (in vitro; MDCK-MDR1): 97.4%
Rank Papp (MDR1-MDCK II cells; MDCK-MDR1): high
Compound: COCCc1ccc(OCC(O)CNC(C)C)cc1 (stereo not drawn) [metoprolol]

Compound: C[C@H]1O[C@@H](O[C@H]2[C@@H](O)C[C@H](O[C@H]3[C@@H](O)C[C@H](O[C@H]4CC[C@@]5(C)[C@H](CC[C@@H]6[C@@H]5C[C@@H](O)[C@]5(C)[C@@H](C7=CC(=O)OC7)CC[C@]65O)C4)O[C@@H]3C)O[C@@H]2C)C[C@H](O)[C@@H]1O [digoxin]
Papp A→B (MDR1 (P-gp)): 0.151 ×10⁻⁶ cm/s
Papp B→A (MDR1 (P-gp)): 3.43 ×10⁻⁶ cm/s
efflux ratio (MDR1 (P-gp)): 22.8
recovery (in vitro; MDCK-MDR1, mean solution recovery % A to B, MDR1-MDCK II cells): 77.5%
recovery (in vitro; MDCK-MDR1, mean solution recovery % B to A, MDR1-MDCK II cells): 92.7%
Rank Papp (MDR1-MDCK II cells; MDR1-MDCK II cells): low

Compound: O=C(O)c1ccc2c(c1)nc(Nc1cccc(Cl)c1)c1ccncc12 [CX-4945]
worm motility inhibition (in words) (T. muris): did not show measurable inhibition of worm motility

Compound: CN1CCCN(C(=O)c2cccc(-c3ccc(C=C4C(=O)Nc5ccc(N)cc54)o3)c2)CC1 [Compound 7]
worm motility inhibition, SAR statement (in words) (A. ceylanicum): not against A. ceylanicum; also recorded: inactive against both species
worm motility inhibition, SAR statement (in words) (T. muris): complete loss of activity; also recorded: inactive against both species

Compound: N#Cc1c(-c2ccccc2)cc(-c2cc(Br)ccc2O)[nH]c1=O [TCS-PIM1]
worm motility inhibition (in words) (T. muris): excellent inhibition
motility inhibition (T. muris; relative to DMSO controls): 100%

Compound: CCCOc1ccc(/C=C2\SC(=O)NC2=O)cc1 [SMI-16a]
motility inhibition (T. muris; @48 h (Figure 1B)): 57%

Compound: CN1CCC(CNc2ccc3ncc(-c4cccc(OC(F)(F)F)c4)n3n2)CC1 [SGI-1776]
worm motility inhibition (in words) (T. muris): excellent inhibition

Compound: CN1CCCN(C(=O)c2cccc(-c3ccc(C=C4C(=O)Nc5c(Cl)cccc54)o3)c2)CC1 [Compound 8]
CC50 (HepG2 cells): 15.5 µM
fold increase in cytotoxicity (measured by CC50) (HepG2 cells; relative to CX-6258): 2.4 fold
worm motility inhibition, SAR statement (in words) (A. ceylanicum): hookworm selective; also recorded: neither an increase nor decrease to activity
IC50 (A. ceylanicum; [1]): 40 µM
IC50 (A. ceylanicum; [2]): 21 µM
worm motility inhibition, SAR statement (in words) (T. muris): neither an increase nor decrease to activity
IC50 (T. muris; [3]): 42 µM
IC50 (T. muris; [4]): > 90 µM

Compound: CN1CCCN(C(=O)c2cccc(-c3ccc(C=C4C(=O)Nc5ccccc54)o3)c2)CC1 [Compound 11]
CC50 (HepG2 cells): 22.2 µM
worm motility inhibition, SAR statement (in words) (A. ceylanicum): neither an increase nor decrease to activity
IC50 (A. ceylanicum; [1]): 25.2 µM
IC50 (A. ceylanicum; [2]): 8.8 µM
worm motility inhibition, SAR statement (in words) (T. muris): neither an increase nor decrease to activity
IC50 (T. muris; [3]): > 90 µM
IC50 (T. muris; [4]): > 90 µM

Compound: O=C1NC(=O)/C(=C/c2ccc(-c3ccc(F)cc3O)o2)S1 [AS-252424]
worm motility inhibition (in words) (T. muris): excellent worm motility inhibition
selectivity for PI3Kγ over PI3Kα (CK2α/PI3Kγ): 30 fold
IC50 (CK2α/PI3Kγ; read-out: IC50 (dual inhibitor of CK2α/PI3Kγ)): 0.03 µM

Compound: C[C@H](NC(=O)c1c(N)nn2cccnc12)c1cc2cccc(C#Cc3cnn(C)c3)c2c(=O)n1-c1ccccc1 [IPI-549]
worm motility inhibition (in words) (T. muris): did not show measurable inhibition of worm motility

Compound: Cc1ccc2c(c1)C(=Cc1ccc(-c3cccc(C(=O)N4CCCN(C)CC4)c3)o1)C(=O)N2 [Compound 10]
worm motility inhibition, SAR statement (in words) (A. ceylanicum): inactivated the inhibition of both species
worm motility inhibition, SAR statement (in words) (T. muris): inactivated the inhibition of both species

Compound: ivermectin
IC50 (T. muris; [3]): > 300 µM
IC50 (T. muris; [4]): 89.6 µM

Papp A→B (MDR1 (P-gp)): 0.05 ×10⁻⁶ cm/s
recovery (in vitro; MDCK-MDR1): 83.1%
Rank Papp (MDR1-MDCK II cells; MDCK-MDR1): low
Compound: CC(C)(C)NCC(O)COc1cccc2c1CC(O)C(O)C2 (stereo not drawn) [nadolol]

Compound: N[C@@H]1CCCN(c2c(/C=C3\SC(=O)NC3=O)cccc2-c2ccccc2)C1 [AZD1208]
worm motility inhibition (in words) (T. muris): inactive

IC50 (A. ceylanicum; [1]): 0.0033 µM
IC50 (A. ceylanicum; [2]): 0.0011 µM
IC50 (T. muris; [3]): 0.0143 µM
IC50 (T. muris; [4]): 0.0345 µM
Compound: CC(C)C[C@H]1C(=O)O[C@H](Cc2ccc(N3CCOCC3)cc2)C(=O)N(C)[C@@H](CC(C)C)C(=O)O[C@H](C)C(=O)N(C)[C@@H](CC(C)C)C(=O)O[C@H](Cc2ccc(N3CCOCC3)cc2)C(=O)N(C)[C@@H](CC(C)C)C(=O)O[C@H](C)C(=O)N1C [emodepside]

Compound: CCCSc1ccc2nc(NC(=O)OC)[nH]c2c1 [albendazole]
IC50 (T. muris; Trichuris muris, 24 h, read-out: T. muris IC50 μM (95% CI) 24 h): > 300 µM
IC50 (T. muris; Trichuris muris, 48 h, read-out: T. muris IC50 μM (95% CI) 48 h): > 300 µM

Compound: Cc1ccc(-c2csc3ncnc(SCCC(=O)O)c23)cc1 [TTP22]
worm motility inhibition (in words) (T. muris): did not show measurable inhibition of worm motility

Compound: O=C1NC(=O)/C(=C/c2cccc(C(F)(F)F)c2)S1 [SMI-4a]
motility inhibition (T. muris; @48 h (Figure 1B)): 71%
